Laboratory results published in patent US20030108612A1, “Metallic nanoparticles for inhibition of bacterium growth” (priority 2001, published 2003).

Assays:
[1] = tested on: Pseudomonas aeruginosa cells (WT, na1B, ΔABM); experiment: Overnight culture, visual inspection of turbidity (MIC); assay type: cell-based; conditions: visual inspection after overnight incubation
Excerpt: Three strains of Pseudomonas aeruginosa cells (WT, na1B, ΔABM) were used in this working example. “WT” stands for wild type P. aeruginosa, PA04290. The symbol “AABM” stands for a mutant of wild type P. aeruginosa, PA04290, lacking MexA, MaxB and OprM, wherein MexA, MexB and OprM are component genes of an efflux system in wild type P. aeruginosa. The symbol “na1B” stands for a mutant of wild type P. aeruginosa, PA04290, having over expression of the MexA, MexB and OprM genes. These three strains were precultured in autoclaved test tubes overnight. Each test tube contained 3 mL of L-broth medium (1% tryptone, 0.5% yeast extract and 0.5% NaCl, pH 7.2) and was placed inside a shaker at 37° C. and 230 rpm. Then, 20 μL of this pre-cultured cell medium was transferred to each new test tube containing 2 mL of L-broth medium and 0, 2, 20, 40, 80, 100, 200 and 400 μL of a sterile liquid containing 300 pM silver enhanced gold particles (as the metallic nanoparticles used in this example) prepared as described in Example 1. […] Based on visual inspection of test tubes (the presence or absence of turbidity in the medium in each of the test tube) after the overnight incubation, it was determined that the bacterial cells grew at a concentration of the silver coated gold particles of less than 20 pM, but not at a concentration of 20 pM or more. […]

[2] = tested on: P. aeruginosa, WT, na1B and ΔABM; experiment: Overnight culture, absorbance at 600 nm by UV-vis spectroscopy (MIC); assay type: cell-based, Pseudomonas aeruginosa; conditions: antibiotic concentration 3.13, 15.65 or 31.3 μg/mL, three strains
Method: After the overnight incubation, the absorbance of the […] an UV-vis spectrometer to determine the concentrations of bacterial cells based upon the light scattering of bacterial cells for the three strains of P. aeruginosa, WT, na1B and ΔABM. For each strain of P. aeruginosa cells and each concentration of the silver coated gold particles, the absorbances of 5 samples of the culture medium were measured with the absorbance of each sample measured 3 times and the average absorbance was calculated. The absorbance of ultra-pure water containing the corresponding concentration of silver coated gold particles was subtracted from the average absorbance and the resulting absorbance was plotted in FIG. 1 versus the concentrations of the silver coated gold particles used in the incubation. […] Thus, the MICs of the silver coated gold particles were determined to be about 20 pM for these three strains of P. aeruginosa.
With a UV-vis spectrometer, the absorbance of each sample of the culture medium was measured at 600 nm after the overnight incubation to determine the P. aeruginosa cell concentration based upon light scattering of cells. For each strain of P. aeruginosa cells, the absorbances of 4 samples of the P. aeruginosa culture medium containing azthreonam or gentamicin at a concentration of 0.313, 3.13, 15.65 or 31.3 μg/mL were measured. […]

[3] = tested on: P. aeruginosa, WT, na1B and ΔABM; experiment: Overnight culture, cell count by single-cell dark-field microscopy (MIC); assay type: cell-based, Pseudomonas aeruginosa; conditions: antibiotic concentration 3.13, 15.65 or 31.3 μg/mL
Excerpt: Images were taken of the 5 samples using a dark-field microscope equipped with a Micromax CCD camera. For each of the three strains of P. aeruginosa, 5 samples of the […], 0.2, 2, 20 or 90 pM were examined using dark-field microscopy to count the number of P. aeruginosa cells present. For each sample, 5 pictures were taken at different locations to obtain representative numbers of P. aeruginosa cells present in each sample and the numbers of P. aeruginosa cells counted in the 5 pictures were summed to obtain the total number of P. aeruginosa cells in the 5 pictures. FIG. […] However, at a metallic nanoparticle concentration of 0, 0.2 or 2 pM, there were 200 or more P. aeruginosa cells in the 5 pictures of the culture medium. […] There were green, blue and red metallic nanoparticles, but the most abundant were green. The red nanoparticles appeared to be the brightest under the dark-field microscope because of the larger size.
After the overnight incubation described above, images were taken using a dark-field microscope equipped with a Micromax CCD camera. For each of the three strains of P. aeruginosa in the presence of azthreonam or gentamicin at a concentration of 0.313, 3.13, 15.65 or 31.3 μg/mL, 4 samples of the culture medium were subjected to single-cell dark-field microscopy. […]

[4] = tested on: WT P. aeruginosa; conditions: published literature; cited from earlier work

C[C@H]1[C@H](NC(=O)/C(=N\OC(C)(C)C(=O)O)c2csc(N)n2)C(=O)N1S(=O)(=O)O [azthreonam]
minimum inhibitory concentrations (MICs) [1]: about 3.13 μg/mL
absorbance at 600 nm [2]: almost zero
total number of P. aeruginosa cells present in the 5 pictures [3]: almost zero
MIC [4]: about 3.13 μg/mL

gentamicin
minimum inhibitory concentrations (MICs) [1]: about 3.13 μg/mL
absorbance at 600 nm [2]: almost zero
total number of P. aeruginosa cells present in the 5 pictures [3]: almost zero
MIC [4]: about 3.13 μg/mL
